From a melting point compilation (Tetko et al.)

Compound	melting point
O=C(CCCl)N1CCOCC1	46 to 48 °C
COc1cc(C(C)=O)ccc1OCC(=O)O	165 to 167 °C
NC(=O)CC(NC(=O)c1ccccc1Cl)C(=O)O (stereo unspecified)	190 to 192 °C
O=C1NCCc2ccc([N+](=O)[O-])cc21	228 to 230 °C
CC(C)COc1ncccc1C(=O)O	84 to 86 °C
CC(C(=O)O)c1ccccc1F (stereo unspecified)	47 to 49 °C
c1cc2c(cn1)CCN2	77 to 79 °C
CNc1ccccc1C(=O)NCCc1ccc(OC)cc1	96 to 98 °C
CCN(c1ccccc1)S(=O)(=O)c1ccc(Cl)c([N+](=O)[O-])c1	122 to 124 °C
COc1ccccc1Nc1ncccc1C(=O)O	175 to 177 °C
O=C(O)CCc1nc(-c2cc(Br)cs2)no1	129 to 131 °C
CNC(=O)COc1ccc(O)cc1	125 to 127 °C
Ic1ccc(OCc2cccnc2)cc1	72 to 74 °C
O=C(O)C1CCCCN1C(=O)c1ccccc1 (stereo unspecified)	128 to 130 °C
O=C(O)Cn1cc([N+](=O)[O-])ccc1=O	225 to 227 °C
Cc1ccc(S(=O)(=O)N2CCCCC2)cc1N	106 to 110 °C
O=C(O)C(O)C1CCOCC1 (stereo unspecified)	79 to 81 °C
O=C(NCc1ccco1)n1ccnc1	145 to 147 °C
NNc1ncccc1C(F)(F)F	71 to 73 °C
COc1cc(C=O)c([N+](=O)[O-])cc1OCC(=O)O	179 to 181 °C
Nc1ccc(Oc2ccc(Cl)cc2)nc1	89 to 91 °C
O=[N+]([O-])c1cc(O)cc(F)c1	111 to 113 °C
COC(=O)c1cc(Cl)cc(Cl)c1N	65 to 67 °C
NC(Cc1ccccc1)C(=O)Nc1ccccc1 (stereo unspecified)	76 to 78 °C
Cc1sc2ncnc(SCCC(=O)O)c2c1C	187 to 189 °C

Compound	melting point
Cn1ccc(N2CCCC(Br)C2=O)n1 (stereo unspecified)	104 to 106 °C
CC1(Cc2ccc3c(c2)OCO3)NC(=O)NC1=O (stereo unspecified)	183 to 185 °C
N#Cc1ccc(OCC2CO2)c([N+](=O)[O-])c1 (stereo unspecified)	85 to 87 °C
O=C(O)/C=C/c1ccc(Cl)s1	198 to 200 °C
CSc1nc(C)c(CC(=O)O)s1	146 to 148 °C
O=C(O)c1sccc1SC(F)F	117 to 119 °C
Nc1ccc(F)c(N(S(=O)(=O)c2ccccc2)S(=O)(=O)c2ccccc2)c1	159 to 161 °C
CC(=O)C(N)=S	59 to 61 °C
Cc1cc(C)nc(-n2nc(C(=O)O)cc2C)n1	189 to 191 °C
CCOc1ccc([N+](=O)[O-])cc1CCl	68 to 70 °C
O=Cc1ccccc1OCc1ccncc1	65 to 67 °C
Oc1ccc(Br)cc1-c1nn[nH]n1	188 to 190 °C
CC(C)(C)OC(=O)N1CCN(CCN)CC1	34 to 36 °C
NCc1nc(-c2ccsc2)no1	134 to 136 °C
N#CCc1ccc(OCC2CO2)cc1 (stereo unspecified)	52 to 54 °C
OCc1noc(-c2ccccc2)n1	80 to 82 °C
O=C1CCc2c(Cl)cccc21	84 to 86 °C
CC(Oc1ccccc1Cc1ccccc1)C(=O)O (stereo unspecified)	91 to 93 °C
CCCOC(=O)c1cc(-c2cncnc2)ccc1N	145 to 147 °C
O=C(O)Cc1csc(-c2ccccn2)n1	140 to 147 °C
CC(Cl)C(=O)NC(C)c1ccc(Cl)cc1 (stereo unspecified)	127 to 129 °C
O=C(O)c1cc(C2CC2)nc2ccc(Cl)cc12	211 to 213 °C
O=C(O)CC(Cc1ccccc1)c1ccccc1 (stereo unspecified)	90 to 92 °C
CCCC(C#N)NC(=O)c1ccccc1 (stereo unspecified)	89 to 91 °C
CC(=O)c1ccc(-c2ccccc2)s1	115 to 117 °C

Compound	melting point
CC(C)(C)OC(=O)Nc1ccccc1C(=O)O	154 to 156 °C
C1=CCC(c2nc3ccccc3[nH]2)CC1 (stereo unspecified)	209 to 211 °C
CCN(CC)c1ccc([N+](=O)[O-])cc1C(=O)O	184 to 186 °C
NC(=S)CCc1ccccc1	82 to 84 °C
CC(C)n1ncc2ccc(N)cc21	144 to 146 °C
O=c1[nH]c(Cl)nc2c1cnn2-c1ccccc1	276 to 278 °C
Nc1ccc2c(c1)CCN2C(=O)c1ccoc1	173 to 175 °C
NS(=O)(=O)c1cccc(NC(=O)c2ccc(C(=O)O)s2)c1	308 to 310 °C
Nc1ccccc1C(=O)N1CCOCC1	74 to 76 °C
N#Cc1cccc(CS(=O)(=O)NN)c1	139 to 141 °C
CCOC(=O)c1nnc2ccccc2c1Cl	53 to 55 °C
CN(C)C(=O)Sc1cnc2c(c1)c(=O)n(C)c(=O)n2C	170 to 172 °C
Cc1cc(C)cc(-n2ncc(C(=O)O)n2)c1	158 to 160 °C
COc1ccc(CNC(N)=S)cc1OC	191 to 193 °C
FC(F)(F)Cc1nc2cc(Br)ccc2[nH]1	139 to 141 °C
CCSc1ccc(C(=O)O)cc1	145 to 147 °C
CCOc1ccc(C(=O)CC(=O)C(=O)OC)cc1	88 to 92 °C
Cc1cc(C)n(Cc2cccc(C(=O)O)c2)n1	220 to 222 °C
CN(C)C(=O)c1cn[nH]c1N	167 to 169 °C
NS(=O)(=O)C1CCS(=O)(=O)C1 (stereo unspecified)	144 to 146 °C
NC(=O)c1cc(-c2ccccc2)sc1NC(=O)CCl	208 to 210 °C
COc1ccc2cc(C=O)c(Cl)nc2c1	84 to 86 °C
Cc1cccc(NC(=O)N2CCCC(C(=O)O)C2)c1 (stereo unspecified)	139 to 141 °C
OCc1cn(-c2cccc(Cl)c2Cl)nn1	105 to 107 °C
Cc1nc[nH]n1	89 to 91 °C

Compound	melting point
OCCOc1ccc(O)cc1	86 to 88 °C
CCC1(c2ccc(F)cc2)NC(=O)NC1=O (stereo unspecified)	95 to 97 °C
O=C(/C=C/c1ccccc1)c1ccc(Br)cc1	104 to 106 °C
Cc1nc(N)sc1Cc1ccccc1Cl	126 to 128 °C
O=C1CCCN1c1cccc([N+](=O)[O-])c1	107 to 109 °C
Cc1nc2cc(NC(=O)CCC(=O)O)ccc2o1	184 to 186 °C
Cc1cnn([N+](=O)[O-])c1	41 to 43 °C
Nc1ccc(C(=O)NCCN2CCOCC2)cc1	157 to 159 °C
OCc1cc(-c2ccccc2)[nH]n1	144 to 146 °C
N#Cc1cc(Oc2ccc(CC(=O)O)cc2)ccn1	169 to 171 °C
O=C(Nc1cnccn1)C1CCCNC1 (stereo unspecified)	141 to 143 °C
CC(=O)Nc1cc(F)c(S(=O)(=O)Cl)c(F)c1	133 to 135 °C
CC1(NC(=O)c2ccnc(F)c2)CCCC1	78 to 80 °C
COc1cccc(NCC(=O)NN)c1	108 to 112 °C
CSc1nsc(N)n1	146 to 148 °C
Cc1oc2ccccc2c1C=O	69 to 71 °C
c1n[nH]c2c1CCNC2	134 to 136 °C
CCOC(=O)c1nn(-c2ccccc2)cc1/C=N/O	111 to 113 °C
Cn1ccnc1CC(=O)c1ccccc1	96 to 98 °C
Cn1cc(-c2nc(C(=O)O)cs2)cn1	262 to 264 °C
Cc1nn(-c2cccc(Cl)c2)nc1C(=O)O	202 to 204 °C
Sc1nnc(SCc2ccccc2Cl)[nH]1	132 to 135 °C
Cn1cc(C(N)C(=O)O)cn1 (stereo unspecified)	245 to 247 °C
O=C(O)c1cccc(N2C(=O)C=CC2=O)c1	231 to 233 °C
O=C(O)C1(Cc2cccc(Cl)c2)CCCC1	60 to 62 °C

Compound	melting point
COc1cc(S(N)(=O)=O)c(OC)cc1N	203 to 205 °C
COC(=O)N(C)c1ccc(O)cc1	99 to 101 °C
OC(CC1CCCCCN1)c1cccs1 (stereo unspecified)	60 to 62 °C
N#CCc1nc2cc(F)ccc2s1	133 to 135 °C
COC(=O)c1ccccc1CC(=O)O	139 to 141 °C
NC(=O)N1CCC(C(=O)O)CC1	193 to 195 °C
Cn1ccc(CCl)cc1=O	64 to 66 °C
Cc1nncn1C1CC1	49 to 51 °C
[N-]=[N+]=NC(C(=O)NC1CC1)c1ccc(F)cc1 (stereo unspecified)	53 to 55 °C
CC(C)c1ccc(C(CN)NC(=O)OC(C)(C)C)cc1 (stereo unspecified)	123 to 125 °C
NC(=S)c1ccc(NC(=O)c2ccco2)cc1	258 to 260 °C
Nc1nnc(-c2ccoc2)[nH]1	188 to 190 °C
COC(=O)c1ccc(CS(N)(=O)=O)cc1	138 to 140 °C
NS(=O)(=O)c1ccc(CC(=O)O)cc1	169 to 171 °C
O=[N+]([O-])c1ccccc1-c1cn[nH]c1	105 to 107 °C
CC(C)(C)OC(=O)N1CCC(OCC(=O)O)CC1	102 to 104 °C
COC(=O)c1cc(C(=O)O)n(-c2ccccc2)n1	161 to 163 °C
COc1ccc2nc(C)cc(Cl)c2c1	99 to 101 °C
O=Cc1cc(C(=O)O)cs1	173 to 175 °C
O=S(=O)(F)c1ccc(Br)cn1	92 to 94 °C
ClCc1csc(-c2ccc3c(c2)OCO3)n1	106 to 108 °C
O=c1[nH]nc2n1CCNC2	179 to 181 °C
ClCc1nc(-c2cc(Br)cs2)no1	56 to 58 °C
COC(=O)c1ccc2ccccc2c1O	75 to 77 °C
NNC(=O)c1ccc(S(=O)(=O)N2CCCC2)cc1	199 to 201 °C

Compound	melting point
Cc1nc(C(N)=O)c(N)n1C	159 to 161 °C
CCNc1ccc(S(=O)(=O)N(C)C)cc1N	161 to 163 °C
Cc1cc(-c2csc(N)n2)c(C)n1CC1CCCO1 (stereo unspecified)	112 to 116 °C
Nc1ccc(S(=O)(=O)Nc2cccnc2)cc1	256 to 258 °C
O=C(O)CCCCOc1ccc(Oc2ccccc2)cc1	53 to 55 °C
COc1cc(C=O)ccc1OCC(N)=O	155 to 157 °C
Nc1ccccc1C(O)C(F)(F)F (stereo unspecified)	119 to 121 °C
CCOC(=O)C1SC(=N)NC1=O (stereo unspecified)	175 to 177 °C
Cc1cc(N)nc(Cl)n1	220 to 222 °C
NC(=O)c1ccccc1OCCO	112 to 114 °C
O=C(O)c1cc(OCC(F)(F)F)c2ccccc2n1	206 to 208 °C
COC(=O)c1cccc(OCC(N)=NO)c1	134 to 136 °C
COc1c(F)c(F)c(N)c(F)c1F	78 to 80 °C
O=C(O)c1cccc(NC(=O)c2ccc(Br)o2)c1	229 to 231 °C
CS(=O)(=O)N1CCC(C(=O)O)CC1	159 to 161 °C
CCC(CC(=O)O)c1ccccc1 (stereo unspecified)	59 to 61 °C
COCCn1cnnc1S	79 to 81 °C
NNc1nc(-c2ccc(Cl)cc2)no1	179 to 181 °C
Clc1ncnc2c1CCC2	39 to 41 °C
Cc1c(CCl)cc(C(=O)O)cc1CCl	157 to 159 °C
Fc1ccc(-c2csc3ncnc(Cl)c23)cc1	139 to 141 °C
